Values joined by “and” are separate entries in the source; they are usually repeats but may differ in a detail not shown here. Identical values can stand only once.
What was measured:
IL-10 mRNA [1] = assay: Liver IL-10 mRNA (RT-PCR); type: in vivo, CD-1 mice
Experimental: (§1) Thirty-two mice were divided into 4 equal groups: (1) control mice; (2) mice treated with 1 mg of N-Mgb injection (as a bolus through the tail vein); (3) mice treated with […] of SnPP (via tail vein); and (4) mice treated with combined N-Mgb 1 SnPP. After either 4 hours (n=16) or 18 hours (n=16), the mice were deeply anesthetized with pentobarbital (50 mg/kg), the abdomen was opened through a midline abdominal incision, and the kidneys were removed. To determine potential effects on extrarenal organs, a liver lobe and the heart were also removed. The tissues were iced and then extracted for protein and RNA (RNeasy Plus Mini; Qiagen, Valencia, Calif.) and subjected to enzyme linked immunosorbent assay (ELISA) and reverse transcriptase polymerase chain reaction (RT-PCR) for HO-1, haptoglobin, and IL-10 protein and messenger RNAs (mRNAs). Zager et al. J Am Soc Nephrol 2014; 25:998-1012; Zager et al. Am J Physiol 2012; 303:F139-48. As an assessment of renal function, control mice and the 18 hour after N-Mgb+SnPP-treated mice had blood urea nitrogen (BUN) and plasma creatinine levels measured. Additionally, transverse 10% formalin fixed kidney sections ([…]) were cut and stained with hematoxylin and eosin (H&E) and periodic acid Schiff (PAS) to further assess potential injury.

[2] = design: species or system mice; conditions: mouse, in vivo, iv
HO-1 mRNA [3] = assay: Liver HO-1 mRNA (RT-PCR); type: in vivo, CD-1 mice
Experimental: as §1

IL-10 protein = assay: Liver IL-10 protein (ELISA); type: in vivo, CD-1 mice
Experimental: as §1

[4] = test system: Mgb-exposed cultured proximal tubule (HK-2) cells; conditions: Zager & Burkhart, Kidney Int 1997; cited from earlier work
HO-1 protein [5] = assay: Liver HO-1 protein (ELISA); type: in vivo, CD-1 mice; design: unit not given beside the values
Experimental: as §1

haptoglobin protein = assay: Cardiac haptoglobin protein (ELISA); type: in vivo, CD-1 mice
Experimental: as §1

IL-10 mRNA [6] = assay: Kidney IL-10 mRNA (RT-PCR); type: in vivo, CD-1 mice
Experimental: as §1

HO-1 mRNA [7] = assay: Kidney HO-1 mRNA (RT-PCR); type: in vivo, CD-1 mice
Experimental: as §1

HO-1 mRNA [8] = assay: Cardiac HO-1 mRNA (RT-PCR); type: in vivo, CD-1 mice
Experimental: as §1

HO-1 mRNA [9] = assay: SnPP vs. SnMeP: renal cortical HO-1 mRNA induction (RT-PCR); type: in vivo, mice; conditions: 1 umole, 4 hrs post injection, n 3
Description: FIG. 28. Comparison of SnPP vs. SnMeP effects on renal cortical HO-1 and haptoglobin mRNA induction 4 hrs post agent injection. Mice received either 1 umole tin protoporphyrin (SnPP), tin mesoporphyrin (SnMeP), or vehicle (n, 3 each) and 4 hrs renal cortical RNA was extracted and subjected to RT-PCR.

HO-1 protein [10] = assay: Renal cortex HO-1 protein (ELISA) after IV myoglobin, SnPP or both; type: in vivo, CD-1 mice; conditions: 4 hr IV; 1 mg myoglobin, 1 μmole SnPP
Description: The Glycerol Model of AKI. This is a widely used model of rhabdomyolysis-induced AKI that has been employed worldwide for 50 years. The model was used to test whether prophylactic interventions confer protection against AKI. Basically, the protocol is as follows: Male CD-1 mice (35-45 grams), obtained from Charles River Laboratories, Wilmington, Mass. were studied. Mice were maintained under standard vivarium conditions and generally housed for 1-3 weeks prior to study. The mice were placed in a cylindrical restraining cage, and then were given a tail vein injection of the test substances (see below) or test substance vehicle. The mice were then returned to their cages. Eighteen hours (hrs) later, the mice were briefly anesthetized by isoflurane inhalation, and given an intramuscular injection of hypertonic (50%) glycerol in a dose of 9 ml/Kg body weight. The dose is divided in two, with half injected into the muscle of each of the hind limbs. The mice were then returned to their cages. Eighteen hrs later, the mice were deeply anesthetized with pentobarbital (50-100 mg/Kg), the abdominal cavity was opened through a midline abdominal incision, a blood sample was obtained from the abdominal vena cava and the kidneys were resected. A kidney cross section was obtained and fixed in formalin for subsequent histologic analysis. The terminal blood samples were analyzed for BUN and creatinine, using commercially available assay kits. The remaining kidney tissue was subjected to cortical dissection, and the cortical tissues were then extracted for protein and RNA. The protein samples were saved for analysis of HO-1 levels, and the RNA samples were subjected to RT-PCR to quantify HO-1 mRNA as well as levels of other stress gene mRNAs (e.g. NGAL, haptoglobin, hemopexin, hepicidin).
Myoglobin+SnPP: To 5 mg of dry myoglobin was added 0.9 ml of PBS+0.1 ml of a stock SnPP solution (50 umole/ml). The resulting final concentrations were 5 mg/ml myoglobin+5 umoles/ml of SnPP. The tail vein was injected with 200 ul of this solution, which equals 1 mg myoglobin+1 umole SnPP. […]
Four hr post myoglobin vs myoglobin+SnPP vs SnPP alone experiments. To confirm that the myoglobin+SnPP has a synergistic effect in inducing HO-1 mRNA and HO-1 protein levels, each of the above combinations have been administered alone via tail vein injection. Four hrs later, the mice were sacrificed as noted above and the kidneys were harvested for assessment of HO-1 mRNA and protein levels. For additional information regarding methods, see Zager et al., Am J Physiol Renal Physiol. 2014 Jul. 30. Pii.
Given that it is just 4 hrs post injection, the mRNA increases are greater than the protein increases as protein synthesis must follow the mRNA induction-requiring more time.

ferritin heavy chain = assay: Kidney ferritin heavy chain expression (Western blotting); type: in vivo, mice; conditions: 18 hrs following 1 umole SnPP, 1 mg FeS or combined
Experimental: FIG. 32. Ferritin heavy chain expression (as determined by Western blotting) in kidneys 18 hrs following 1 umole tin protoporphyrin (SnPP), 1 mg Fe sucrose (FeS) or combined SnPP+FeS treatment.

haptoglobin mRNA = assay: Kidney haptoglobin mRNA (RT-PCR); type: in vivo, CD-1 mice
Experimental: as §1

[11] = 4 h after IV injection, N-Mgb 1 mg, SnPP 1 mmol [sic]

SMILES: C=Cc1c2[n-]c(c1C)/C=c1\[n-]/c(c(C)c1C=C)=C\c1[n-]c(c(CCC(=O)O)c1C)/C=c1\[n-]c(c(C)c1CCC(=O)O)=C2.[Sn+4] [SnPP, tin protoporphyrin]
- Liver mRNA IL-10 (IL-10 mRNA [1]; 4 h after IV injection): 0.14 ± 0.1
- Liver mRNA IL-10 (IL-10 mRNA [1]; 18 h after IV injection): 0.05 ± 0.01
- Plasma LDH, Average [2]: 4.51 Absorbance U LDH/ml
- Liver mRNA HO-1 (HO-1 mRNA [3]; 4 h after IV injection): 3.15 ± 0.25
- Liver mRNA HO-1 (HO-1 mRNA [3]; 18 h after IV injection): 2.56 ± 0.21
- Liver protein IL-10 (IL-10 protein; 4 h after IV injection): 485 ± 47
- Liver protein IL-10 (IL-10 protein; 18 h after IV injection): 8198 ± 725
- Reduction of Mgb toxicity [4]: ≤ 85%
- Liver protein HO-1 (HO-1 protein [5]; 4 h after IV injection): 7.4 ± 0.7
- Liver protein HO-1 (HO-1 protein [5]; 18 h after IV injection): 18 ± 2.5
- Cardiac protein Haptoglobin (haptoglobin protein; 4 h after IV injection): 19.1 ± 2.1
- Cardiac protein Haptoglobin (haptoglobin protein; 18 h after IV injection): 96.1 ± 36.2
- Impact on renal IL-10 mRNA levels, in words (IL-10 mRNA [6]; 4-hour time point, agent alone): either minimal or no impact
- Kidney mRNA IL-10 (IL-10 mRNA [6]; [11]): 0.39 ± 0.15
- Kidney mRNA cortex IL-10 (IL-10 mRNA [6]; 18 h after IV injection): 0.18 ± 0.09
- Kidney mRNA HO-1 (HO-1 mRNA [7]; [11]): 4.38 ± 0.28
- Renal HO-1 mRNA increase, in words (HO-1 mRNA [7]; 4 hour, agent alone): only modest increases
- Kidney mRNA cortex HO-1 (HO-1 mRNA [7]; 18 h after IV injection): 0.63 ± 0.06
- Cardiac mRNA HO-1 (HO-1 mRNA [8]; 4 h after IV injection): 0.14 ± 0.01
- Cardiac mRNA HO-1 (HO-1 mRNA [8]; 18 h after IV injection): 0.09 ± 0.03
- Renal cortical HO-1 mRNA induction (HO-1 mRNA [9]): raised
- Cortex HO-1 protein (ELISA), Average (HO-1 protein [10]): 34.4 ng HO-1/mg protein
- Cortex HO-1 protein (ELISA), individual mice (HO-1 protein [10]): 31.5 ng HO-1/mg protein and 20.5 ng HO-1/mg protein and 53.6 ng HO-1/mg protein and 32.2 ng HO-1/mg protein
- Ferritin heavy chain protein levels in kidney (ferritin heavy chain): weak effect
- Kidney mRNA Haptoglobin (haptoglobin mRNA; [11]): 0.19 ± 0.01
- Kidney mRNA cortex Haptoglobin (haptoglobin mRNA; 18 h after IV injection): 0.23 ± 0.08
